Reference: article PMC9945865, “Anticancer evaluation of new organometallic ruthenium(II) flavone complexes” (RSC Medicinal Chemistry, 2022)

Columns and labels:
[1] = system: ovarian cancer cell lines; design: method as in doi:10.1021/OM500317B; settings: ovarian cancer cell lines ref 20; cited from earlier work
[2] = system: cervical, breast, hepatocellular and colorectal cancer cell lines; design: method as in PMID 24793593; settings: hepatocellular and colorectal cancer cell lines ref 19; cited from earlier work
MCF-7 [3] = assay: Cell viability, 72 h MTT assay; assay type: cell-based, human; settings: Homo sapiens, MCF7; MCF-7, 72 h MTT, mean ± SEM, n = 3
Description: (§1) The unique chemical features and coordination geometries of metal ions can add several additional binding interactions that can potentially enhance their anticancer properties for example by allowing intercalation and exploitation of their redox potential.[24] […] In that context, coordination of derivative (2) with a Ru(II) metal ligand is a promising approach to further improve its antiproliferative activity.
(§2) MCF-7 and MDA-MB-231 cells were seeded at a density of 4 × 10^4 and 2 × 10^4 cells per mL, respectively, into 96 well plates and incubated to allow the attachment for 24 h. After 24 h, the cells were treated with one of the synthesised derivatives at range of concentrations (0–100 μM) for 67 h. After 67 h, 20 μL of MTT (5 mg mL^−1) solution in PBS was added to each well and the cells were incubated for 5 h. The purple crystals formed were dissolved in 100 μL of DMSO and the plates were read at 560 nm using a SPECTRA max UV spectrometer (Bio-Rad). The data represented are the mean of the three individual experiments.

MDA-MB-231 [4] = assay: Cell viability, 72 h MTT assay; assay type: cell-based, human; settings: Homo sapiens; MDA-MB-231, 72 h MTT, mean ± SEM, n = 3
Description: as §1, §2

c-myc i-motif DNA [5] = assay: I-motif DNA binding, UV-visible absorbance; design: species or system human; settings: DNA : flavonoid 2 μM : 2 μM, pH 5.5, 25 °C
Source text: (§3) I-motifs are four stranded antiparallel cytosine rich DNA sequences capable of forming at telomere and promotor regions of genomic DNA.[41,42] […] Due to the presence of potential i-motif forming sequences in 69% of promoter regions in human oncogenes, they are postulated to play a key role in oncogene expression regulation.[44] VEGF and c-myc i-motif sequences are prevalent in oncogene promotor regions in many cancers including breast cancer and as such their ligands have potential anticancer roles.[45] The natural flavonol, fisetin, is reported to specifically bind to VEGF i-motif DNA and regulate its function by stabilizing its hairpin structure.[31] […] In continuation of our investigation of the effects of Ru metal complexation on the different biological activities of flavonoids, interactions with VEGF and c-myc i-motif DNA were studied using UV-vis spectroscopic techniques. […] However, 2Ru's addition led to a 1 nm hypsochromic shift of VEGF i-motif absorbance maximum from 272 to 271 nm. On the other hand, addition of the 4-oxo flavone (1) and its Ru complex (1Ru) led to minor changes in λmax of both sequences that was hypochromic (5% and 3%) with VEGF and hyperchromic (2% and 5%) in case of c-myc (Fig. 8).
(§4) UV-visible absorbance measurements and DNA UV melting studies were performed on a Cary 300 C (Varian USA) UV-visible spectrophotometer. VEGF and c-myc i-motif DNA (5′-3′ sequences ([…]) and ([…]), respectively) were purchased from Sigma-Aldrich (Gillingham, UK) and used without further purification. Na cacodylate buffer (20 mM, pH 5.5) was used for both i-motifs. DNA concentrations were determined by measuring the absorbance at 260 nm after melting using the molar extinction coefficient supplied by the manufacturer. VEGF and c-myc i-motifs were prepared for experiments by diluting with buffer solution, annealed with or without the flavonoid at 95 °C for 5 min then gently cooled to room temperature. The stock solutions of the test compounds (20 mM) were prepared in 100% sterile DMSO. These stocks were then appropriately diluted with HPLC grade water and DMSO levels were maintained below 0.1% in the test concentrations.
(§5) UV-visible absorbance measurements and UV melting studies of either free i-motifs (VEGF or c-myc), free flavone (1, 1Ru, 2 or 2Ru) or both i-motif DNA and flavone (2 μM: 2 μM) were recorded using 1.0 cm matched quartz cuvettes. First spectra were recorded in the range of 200–500 nm to determine the relevant wavelength range were no peaks were observed above 320 nm. […] UV-visible absorbance was measured at 25 °C while melting curves were collected at a heating rate of 1 °C min^−1 from 20 to 90 °C. Tm was calculated by non-linear fitting of the sigmoidal curve obtained at 295 nm.

VEGF i-motif DNA [6] = assay: I-motif DNA binding, UV-visible absorbance; design: species or system human; settings: DNA : flavonoid 2 μM : 2 μM, pH 5.5, 25 °C
Source text: as §3, §4, §5

c-myc i-motif DNA [7] = assay: I-motif DNA UV melting (thermal stability); assay type: binding, human; settings: for Tm: c-myc i-motif with flavone at 1 : 1 ratio, 295 nm, free DNA 45 °C; for ΔTm: c-myc i-motif, 1 : 1 ratio, ΔTm = Tm (DNA-flavone) − Tm (DNA)
Source text: (§6) The effect of this set of flavones on VEGF and c-myc was further evaluated via thermal stability measurements. Stabilizing/destabilizing the promotor i-motif structures is often reported to regulate expression of the corresponding genes, which for VEGF and c-myc could have detrimental effects on cancer growth and propagation.[48] As observed in Fig. 9, effects of the test flavones on the thermal stability of the VEGF and c-myc i-motif sequences were generally marginal and in agreement with λmax chromophoric shifts. […] Compound 1 destabilized VEGF i-motif in contrast to stabilizing the c-myc one. This mirrored the trend of a higher chromophoric shift observed for flavone 1 with VEGF i-motif sequence that also differed in pattern (hypochromic) from the shift witnessed with the c-myc sequence (hyperchromic). These findings could indicate higher selectivity of the 4-oxo derivative (1) towards VEGF i-motif based on an intercalative binding mode especially that hypochromic shifts are reported with DNA intercalation.[49,50] […] In this regard, the highest i-motif activity seen for the parent flavonoids was switched from VEGF to c-myc with compound 1 and vice versa with compound 2 upon Ru chelation. This emphasizes the key role of the interplay between the substitution at position 4 and metal complexation on the interaction with biological targets.
as §4, §5

VEGF i-motif DNA [8] = assay: I-motif DNA UV melting (thermal stability); assay type: binding, human; settings: for Tm: VEGF i-motif with flavone at 1 : 1 ratio, 295 nm, free DNA 46 °C; for ΔTm: VEGF i-motif, 1 : 1 ratio, ΔTm = Tm (DNA-flavone) − Tm (DNA)
Source text: as §6, §4, §5

[9] = Cytotoxicity on HUVECs, trypan blue exclusion assay; assay type: cell-based, human; settings: human, HUVEC cells, % of control, p > 0.05 vs control, read-out: Cell viability of HUVECs
Description: The biocompatibility of flavones (1 and 2)[30] alongside their ruthenium(II) metal complexes (1Ru and 2Ru) with HUVEC cells was established using the trypan blue exclusion assay. A concentration four times higher (i.e. 40 μM) than the highest concentration used for the tube formation antiangiogenic evaluation study (i.e. 10 μM) was selected for this cytotoxic assay.
Cytotoxic activity of treatments on HUVECs using trypan blue exclusion assay.[55] HUVECs were seeded in 96 well plates at 1 × 10^5 cells per mL and cultured for 24 h. Cells were then treated with either luteolin, the synthesised derivatives at 40 μM or culture medium (control) for 24 h. After 24 h, solutions were removed and cells washed with 100 μL PBS followed by the addition of 50 μL trypsin–EDTA and incubation for 5 min to detach the cells. 50 μL of EGM-2 media was added to the wells. 50 μL aliquots of the cell suspension were mixed with equal volume of trypan blue (TB) 0.2% v/v (prepared from 0.4% TB diluted with PBS) then the cells were counted using a haemocytometer. Number of viable and dead cells were counted manually and % cell viability of each treatment was expressed as % of control using the equation:% Cell Viability = (Cell viability in treatment/Cell viability in control) × 100where cell viability was calculated as follows:Cell Viability = Number of viable cells/Total number of cells(viable and dead).

MCF-7 [10] = assay: Wound healing (migration) 24 h scratch assay; assay type: cell-based, human; settings: MCF-7, any of the tested doses (1, 10, 20 μM)
Description: (§7) Malignant cell migration is essential for tumour invasion and metastasis.[1] Thus, the ability of the synthetic flavones (1 and 2) and their Ru(II) metal complexes (1Ru and 2Ru) to inhibit the migration of breast cancer cells (MCF-7 and MDA-MB-231) was assessed by an in vitro 24 h scratch assay. Low, sub-cytotoxic concentrations of 1, 10 and 20 μM were used in this evaluation.
(§8) MCF-7 or MDA-MB-231 cells were seeded in 12-well plates at 2 × 10^5 or 1 × 10^5 cells per mL, respectively, and cultured until 70–80% confluency. Afterwards, they were serum-starved (0% serum) for 24 h to inactivate the cell proliferation. A scratch was performed on the cell monolayers using a 200 μL pipette tip. Cells were then washed twice with PBS and treated with complete medium and one of the synthesized derivatives at 1, 10 or 20 μM. […] Images of the scratches were taken immediately after performing the scratch (t = 0 h) and at 24 h (t = 24 h). The area not covered by the cells was quantified using ImageJ software. % of wound closure was calculated using the following equation:100 × ((Area of scratch at t0 − Area of scratch at t24)/Area of scratch at t0)

MDA-MB-231 [11] = assay: Wound healing (migration) 24 h scratch assay; assay type: cell-based, human; settings: MDA-MB-231, 1, 10, 20 μM, 24 h
Description: as §7, §8

HUVECs = assay: Matrigel endothelial cell tube formation assay (VEGF-mediated); assay type: cell-based, human; settings: compared to the positive control (10 ng mL^−1 VEGF), 12 h
Description: In our recent study,[30] the 4′-chlorophenylflavone derivatives 1 and 2 have shown promising antiangiogenic activities in vitro. Herein, the effect of complexation with a ruthenium(II) metal ligand on the antiangiogenic activity of 1 and 2 was evaluated using the Matrigel tube formation assay that assesses many of the main steps involved in the process of angiogenesis. Inhibition of VEGF-mediated tube formation by the tested substrates was observed after 12 h of treatment on HUVECs at 1 μM and 10 μM concentrations. Luteolin is a natural flavone well known for its high antiangiogenic activity both in vitro and in vivo[34] and as such was used in this study as a reference standard. In accordance with reported data, luteolin inhibited the measured elements of tube formation by 30% compared to the positive control.[34,35] […] The ability of Ru(II) organometallic derivatives to target tumour metastasis has been widely reported both in vitro and in vivo.[3,6,9,36] Thus, based on the preliminary antiangiogenic trends observed for our target Ru(II) complexes (1Ru and 2Ru) and their parent flavones (1 and 2), we further investigated their antiproliferative and antimetastatic potential on the estrogen receptor positive breast cancer cell line (MCF-7) and the more aggressive triple negative cell line (MDA-MB-231).
HUVECs were cultured until confluency and then serum starved (0.1% serum) for 24 h. The tube formation assay followed the reported assay.[56] Briefly, 96 well plates were coated with 50 μL of Corning™ Matrigel™ GFR Membrane Matrix at 4 °C and incubated at 37 °C for 1–2 h to solidify. Serum starved HUVECs were seeded on the solidified Matrigel at 3 × 10^5 cells per mL and treated with medium containing VEGF (10 ng mL^−1) and either luteolin or one of the synthesised derivatives (at 1 μM or 10 μM). Plates were incubated for 12 h and photos covering the whole well area were taken using 4× magnification power of an inverted light microscope. Number of junctions, number and length of segments and master segments were quantified from the taken Images via the Angiogenesis Analyzer plugin[57] in ImageJ software.[58] […] Data was represented as a ratio to the positive control (VEGF enriched).

Row | SMILES | IC50 [1] | IC50 [2] | IC50 (MCF-7 [3]) | IC50 (MDA-MB-231 [4]) | hyperchromic shift (increase) at absorbance maximum λmax (c-myc i-motif DNA [5]) | hypochromic change at λmax (VEGF i-motif DNA [6]) | Tm (c-myc i-motif DNA [7]) | ΔTm (c-myc i-motif DNA [7]) | Tm (VEGF i-motif DNA [8]) | ΔTm (VEGF i-motif DNA [8]) | viability at 24 h, 40 µM [9] | antimigratory activity (MCF-7 [10]) | effect on the migration (MDA-MB-231 [11]) | hyperchromic shift (increase) at absorbance maximum λmax (VEGF i-motif DNA [6]) | melting point | inhibition of the measured elements of tube formation (HUVECs)
1 | N.N.[Cl][Pt][Cl] [cisplatin] | 1.5 to 25 µM | 13 to 52 µM | – | – | – | – | – | – | – | – | – | – | – | – | – | –
2 | O=c1cc(-c2ccc(Cl)cc2)oc2cc(O)cc(O)c12 [compound 1, 2-(4-chlorophenyl)-5,7-dihydroxy-4H-chromen-4-one] | – | – | > 100 µM | > 100 µM | 2% | 5% | 46 °C | 1 °C | 44 °C | −2 °C | ~100% | no observed effects | neither showed any effect | – | – | –
3 | Oc1cc(O)c2c(=S)cc(-c3ccc(Cl)cc3)oc2c1 [compound 2, 2-(4-chlorophenyl)-5,7-dihydroxy-4H-chromene-4-thione] | – | – | 1.2 ± 0.8 µM | 43.1 ± 1.29 µM | 18% | – | 47 °C | 2 °C | 47 °C | 1 °C | ~100% | – | – | 16% | 247.7 to 248 °C | –
4 | O=c1cc(-c2ccc(O)c(O)c2)oc2cc(O)cc(O)c12 [luteolin, Luteolin, reference compound] | – | – | – | – | – | – | – | – | – | – | – | – | – | – | – | 30%
